Each structure is given as a SMILES string.

In US7179812B2, “Diazine derivatives” (Hoffmann-la Roche Inc., priority 2005, dated 2007) one finds inhibition data, which are given here for 3 compounds.

The assay has as its target T1, HER2 (Homo sapiens, UniProt P04626).
T1 construct: endogenous in cells; host or cells: Calu3 tumor cell line
Put plainly: Inhibition of HER2 phosphorylation in Calu3 tumor cell line. The format is cell-based. The note with it: Calu-3; compound concentration 1 μM; Calu3 cells, 16 h incubation; pY 1248 in HER2; percentage of the DMSO treated control; read-out: Percent inhibition of HER2-phosphorylation. The procedure: Inhibition of HER2 Phosphorylation in Calu3 Tumor Cell Line
2×10^5 Calu3 cells per well were plated in a 12-well plate. After 4 days cells were starved for 16 h in DMEM(Dulbecco's Modified Eagle Medium)/0.5% FCS(Fetal Calf Serum)/1% Glutamine. During this time cells were incubated with 1 μM of the compound. Afterwards cells were lysed in lyses buffer containing 1% Triton, 10% Glycerol, 1 mM EGTA, 1.5 mM MgCl2, 150 mM NaCl, 50 mM Hepes pH 7.5, 1 mM PMSF, 10 μg/mL Aprotinin and […] Orthovanadate. Cell lysates were analyzed on a SDS PAGE and after transfer to a nitrocellulose membrane detected with an antibody specifically recognizing the pY 1248 in HER2. Inhibition of HER2 phosphorylation is calculated as percentage of the DMSO treated control. This percentage is calculated according to the following formula: Inhibition in %=100−(Phosphorylated-HER2-Signal of Test Sample*100/Phosphorylated-HER2-Signal DMSO-control).

T1 sequence (P04626 23-1255): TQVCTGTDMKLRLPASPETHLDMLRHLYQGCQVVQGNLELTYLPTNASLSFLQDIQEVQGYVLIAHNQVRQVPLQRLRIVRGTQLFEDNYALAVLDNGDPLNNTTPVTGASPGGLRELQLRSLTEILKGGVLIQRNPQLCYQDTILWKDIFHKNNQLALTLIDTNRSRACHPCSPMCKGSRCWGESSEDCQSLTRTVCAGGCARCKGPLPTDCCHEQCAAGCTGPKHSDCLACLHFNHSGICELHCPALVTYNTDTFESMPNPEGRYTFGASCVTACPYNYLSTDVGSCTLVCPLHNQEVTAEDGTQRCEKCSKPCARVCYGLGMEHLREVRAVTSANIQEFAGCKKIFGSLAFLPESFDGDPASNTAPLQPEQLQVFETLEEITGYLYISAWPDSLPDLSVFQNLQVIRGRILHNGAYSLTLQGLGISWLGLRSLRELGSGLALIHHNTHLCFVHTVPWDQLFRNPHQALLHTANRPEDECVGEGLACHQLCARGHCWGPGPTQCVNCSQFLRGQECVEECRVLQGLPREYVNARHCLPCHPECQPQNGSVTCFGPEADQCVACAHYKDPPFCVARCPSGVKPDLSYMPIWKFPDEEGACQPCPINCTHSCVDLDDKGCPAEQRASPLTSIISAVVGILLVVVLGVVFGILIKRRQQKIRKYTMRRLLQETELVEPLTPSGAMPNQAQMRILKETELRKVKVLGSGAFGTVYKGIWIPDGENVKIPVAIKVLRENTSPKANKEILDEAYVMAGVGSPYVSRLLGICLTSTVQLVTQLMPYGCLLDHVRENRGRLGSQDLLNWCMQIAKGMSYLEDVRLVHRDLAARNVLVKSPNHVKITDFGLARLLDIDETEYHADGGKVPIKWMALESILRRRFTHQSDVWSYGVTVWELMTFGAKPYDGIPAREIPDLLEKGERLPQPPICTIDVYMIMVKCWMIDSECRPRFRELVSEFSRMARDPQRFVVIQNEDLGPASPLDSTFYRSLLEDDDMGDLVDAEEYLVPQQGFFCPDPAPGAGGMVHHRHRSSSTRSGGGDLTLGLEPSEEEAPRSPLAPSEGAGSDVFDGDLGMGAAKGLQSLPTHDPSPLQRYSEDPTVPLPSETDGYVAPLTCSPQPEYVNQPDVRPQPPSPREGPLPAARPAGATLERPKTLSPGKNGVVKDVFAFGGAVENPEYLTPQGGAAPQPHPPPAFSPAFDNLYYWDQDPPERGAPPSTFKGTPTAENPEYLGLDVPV

Take `FC(F)(F)c1ccc(C=Cc2nc(COc3ccc(CCCCn4ccnn4)nn3)co2)cc1` [example 2, 3-(4-[1,2,3]Triazol-1-yl-butyl)-6-{2-[2-(4-trifluoromethyl-phenyl)-vinyl]-oxazol-4-ylmethoxy}-pyridazine]: the inhibition – broadly, the drop in the measured response relative to a control, in per cent – at 1 µM was found to be 79.8%.

For `FC(F)(F)c1ccc(C=Cc2nc(COc3cnc(CCCCn4ccnn4)cn3)co2)cc1` [example 7, 2-(4-[1,2,3]Triazol-1-yl-butyl)-5-{2-[2-(4-trifluoromethyl-phenyl)-vinyl]-oxazol-4-ylmethoxy}-pyrazine], the inhibition at 1 µM was 75.3%.

With `FC(F)(F)c1ccc(C=Cc2nc(COc3ncc(CCCCn4ccnn4)cn3)co2)cc1` [example 4, 5-(4-[1,2,3]Triazol-1-yl-butyl)-2-{2-[2-(4-trifluoromethyl-phenyl)-vinyl]-oxazol-4-ylmethoxy}-pyrimidine], the inhibition at 1 µM was 72.7%.
